# Entries after “also recorded” stand apart in the source; their conditions may differ.
# What was measured:
# [1] = biological target: T1, PCV2 capsid protein (dcapsid) (Porcine circovirus 2, UniProt O56129); assay: Microscale thermophoresis assay (MST), wild-type dcapsid; format: binding, porcine circovirus type 2 (PCV2)
# T1 construct: hexahistidine (N); made in house; host or cells: Escherichia coli BL21 (DE3)
# PCV2 [2] = assay: Infectivity assay (titer, immunoblotting, qPCR, IFA); format: cell-based, porcine circovirus type 2 (PCV2); details: for anti-infective (antiviral) effect on PCV2: PK-15 cells, MOI = 1.0
# [3] = biological target: T2, PCV2 dcapsid bound to Heparin-Sepharose (Porcine circovirus 2, UniProt O56129); assay: Heparin column chromatography (competitive elution of dcapsid); format: binding, porcine circovirus type 2 (PCV2)
# T2 construct: hexahistidine (N); made in house; host or cells: Escherichia coli BL21 (DE3)
# PCV2 mutant viruses = assay: Infectivity assay of rescued PCV2 mutant viruses; format: cell-based, porcine circovirus type 2 (PCV2); details: 100 μM, whole infective process, titers at 72 hpi
# PCV2 dcapsid mutant R73A = biological target: T3, PCV2 dcapsid mutant R73A (Porcine circovirus 2, UniProt O56129, R73A); assay: Microscale thermophoresis assay (MST), dcapsid mutant R73A; format: binding, porcine circovirus type 2 (PCV2); details: read-out: Kd between EGCG and capsid mutant R73A
# T3 construct: hexahistidine (N); made in house; host or cells: Escherichia coli BL21 (DE3)
# PCV2 dcapsid mutant G54A = biological target: T4, PCV2 dcapsid mutant G54A (Porcine circovirus 2, UniProt O56129, G54A); assay: Microscale thermophoresis assay (MST), dcapsid mutant G54A; format: binding, porcine circovirus type 2 (PCV2); details: read-out: Kd between EGCG and capsid mutant G54A
# T4 construct: hexahistidine (N); made in house; host or cells: Escherichia coli BL21 (DE3)
# [4] = system: PCV2 dcapsid mutants bound to heparin column; assay: Heparin column chromatography of dcapsid mutants; format: binding, porcine circovirus type 2 (PCV2)
# PCV2 dcapsid mutant D70A = biological target: T5, PCV2 dcapsid mutant D70A (Porcine circovirus 2, UniProt O56129, D70A); assay: Microscale thermophoresis assay (MST), dcapsid mutant D70A; format: binding, porcine circovirus type 2 (PCV2); details: read-out: Kd between EGCG and capsid mutant D70A
# T5 construct: hexahistidine (N); made in house; host or cells: Escherichia coli BL21 (DE3)
# PCV2 virions = assay: Binding assay of virions to PK-15 cells (qPCR, flow cytometry); format: cell-based, porcine circovirus type 2 (PCV2); details: 100 μM, binding 1 h at 4 °C, MOI = 5.0
# PCV2 [5] = assay: Time of addition and dilution experiment; format: cell-based, porcine circovirus type 2 (PCV2); details: for inhibitory effect of post-infection treatment: immunoblotting at 72 hpi
# PCV2 dcapsid mutant N75A = biological target: T6, PCV2 dcapsid mutant N75A (Porcine circovirus 2, UniProt O56129, N75A); assay: Microscale thermophoresis assay (MST), dcapsid mutant N75A; format: binding, porcine circovirus type 2 (PCV2); details: read-out: Kd between EGCG and capsid mutant N75A
# T6 construct: hexahistidine (N); made in house; host or cells: Escherichia coli BL21 (DE3)
# PK-15 cells = assay: Cytotoxicity assay (CCK8); format: cell-based, Porcine
# PCV2 dcapsid mutant D78A = biological target: T7, PCV2 dcapsid mutant D78A (Porcine circovirus 2, UniProt O56129, D78A); assay: Microscale thermophoresis assay (MST), dcapsid mutant D78A; format: binding, porcine circovirus type 2 (PCV2); details: read-out: Kd between EGCG and capsid mutant D78A
# T7 construct: hexahistidine (N); made in house; host or cells: Escherichia coli BL21 (DE3)
# PCV2 dcapsid mutant R51A = biological target: T8, PCV2 dcapsid mutant R51A (Porcine circovirus 2, UniProt O56129, R51A); assay: Microscale thermophoresis assay (MST), dcapsid mutant R51A; format: binding, porcine circovirus type 2 (PCV2); details: read-out: Kd between EGCG and capsid mutant R51A
# T8 construct: hexahistidine (N); made in house; host or cells: Escherichia coli BL21 (DE3)
# T8 sequence (O56129 42-233 R51A): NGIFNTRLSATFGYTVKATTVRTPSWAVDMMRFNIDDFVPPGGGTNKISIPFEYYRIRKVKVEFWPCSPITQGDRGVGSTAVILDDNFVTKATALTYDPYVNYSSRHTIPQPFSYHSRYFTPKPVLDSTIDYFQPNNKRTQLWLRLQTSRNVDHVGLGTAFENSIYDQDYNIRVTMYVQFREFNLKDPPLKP
# T1 sequence (O56129 42-233): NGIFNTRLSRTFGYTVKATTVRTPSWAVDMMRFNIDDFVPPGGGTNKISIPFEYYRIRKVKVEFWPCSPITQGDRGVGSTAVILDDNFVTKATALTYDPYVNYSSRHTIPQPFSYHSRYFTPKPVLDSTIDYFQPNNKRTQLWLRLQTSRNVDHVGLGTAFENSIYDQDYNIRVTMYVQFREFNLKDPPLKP
# T2 sequence (O56129 42-233): as above
# T3 sequence (O56129 42-233 R73A): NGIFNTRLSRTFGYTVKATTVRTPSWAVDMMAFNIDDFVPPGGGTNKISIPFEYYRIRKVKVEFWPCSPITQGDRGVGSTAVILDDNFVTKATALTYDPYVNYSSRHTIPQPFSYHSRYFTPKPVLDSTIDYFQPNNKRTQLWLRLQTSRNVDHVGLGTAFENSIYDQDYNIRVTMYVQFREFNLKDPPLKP
# T6 sequence (O56129 42-233 N75A): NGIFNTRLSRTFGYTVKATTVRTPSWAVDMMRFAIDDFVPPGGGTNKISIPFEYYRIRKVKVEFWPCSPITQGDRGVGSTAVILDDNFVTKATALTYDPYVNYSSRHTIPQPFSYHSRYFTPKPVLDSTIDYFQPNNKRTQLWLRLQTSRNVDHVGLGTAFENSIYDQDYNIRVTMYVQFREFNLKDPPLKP
# T4 sequence (O56129 42-233 G54A): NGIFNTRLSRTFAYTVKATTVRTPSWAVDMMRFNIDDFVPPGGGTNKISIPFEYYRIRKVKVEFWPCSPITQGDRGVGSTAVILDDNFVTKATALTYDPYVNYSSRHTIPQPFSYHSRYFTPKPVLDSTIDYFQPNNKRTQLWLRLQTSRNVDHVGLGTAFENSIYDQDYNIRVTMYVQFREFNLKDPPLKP
# T7 sequence (O56129 42-233 D78A): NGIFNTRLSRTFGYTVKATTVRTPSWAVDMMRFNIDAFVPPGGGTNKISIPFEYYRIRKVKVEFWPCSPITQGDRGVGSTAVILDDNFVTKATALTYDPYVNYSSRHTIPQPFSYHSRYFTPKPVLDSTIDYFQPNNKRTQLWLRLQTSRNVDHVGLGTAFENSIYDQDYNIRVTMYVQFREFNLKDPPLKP
# T5 sequence (O56129 42-233 D70A): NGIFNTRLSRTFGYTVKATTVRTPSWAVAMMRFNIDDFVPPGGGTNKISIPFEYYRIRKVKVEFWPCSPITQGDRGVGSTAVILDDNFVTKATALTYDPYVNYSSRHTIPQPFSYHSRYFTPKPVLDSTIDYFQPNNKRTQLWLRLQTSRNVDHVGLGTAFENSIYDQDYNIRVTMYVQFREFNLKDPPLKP
compound,measurement,setting,value
"Oc1cc(O)c2c(c1)O[C@H](c1ccc(O)c(O)c1)[C@H](O)C2 [EC, epicatechin, reference compound]",Kd,[1],951.3 ± 6.81 µM
same,lower affinity to capsid than EGCG,"[1]; MST, ratio of Kd",10 fold
same,anti-infective (antiviral) effect on PCV2,PCV2 [2]; 100 μM,no considerable anti-infective effect; also recorded: did not exert an antiviral effect
same,dcapsid protein fraction eluted from heparin column,[3]; competitor 0.05 mg/mL,10.33 ± 4.50%
"O=C(O[C@@H]1Cc2c(O)cc(O)cc2O[C@@H]1c1cc(O)c(O)c(O)c1)c1cc(O)c(O)c(O)c1 [EGCG, Epigallocatechin gallate]",antiviral effect on PCV2 (D70A) and PCV2 (D78A),PCV2 mutant viruses,could not be detected
same,"antiviral effect on PCV2 (G54A), PCV2 (N75A), PCV2 (WT) and PCV2 (A135A)",PCV2 mutant viruses,could inhibit the infectivity
same,Kd,PCV2 dcapsid mutant R73A,971 ± 9.54 µM
same,Kd,PCV2 dcapsid mutant G54A,99.3 ± 9.29 µM
same,"eluted level of R51A, D70A, R73A and D78A mutants","[4]; 0.5 mg/mL EGCG, especially D70A and D78A",remarkably reduced
same,Kd,[1],98 ± 4.76 µM
same,"inhibitory effect of PCV2 infection (immunoblotting, qPCR)","PCV2 [2]; 10 μM, 72 hpi",still detectable
same,viral capsid protein expression (immunoblotting),"PCV2 [2]; 100 μM, 72 hpi",reduced level
same,viral genome copy number (qPCR),"PCV2 [2]; 100 μM, 72 hpi",reduction
same,quantity of PCV2 infected cells (IFA),"PCV2 [2]; 100 μM, MOI = 1.0, vs. without treatment",obviously lower
same,anti-infective (antiviral) effect on PCV2,PCV2 [2]; 100 μM,exhibited an inhibitory effect
same,virus titer of PCV2 infected cells,"PCV2 [2]; 100 μM, whole infective process, various time points, vs. without treatment",significant decrease
same,Kd,PCV2 dcapsid mutant D70A,863.7 ± 7.23 µM
same,bound PCV2 particles (qRT-PCR),PCV2 virions,decrease significantly
same,proportion of PCV2-attached cells (flow cytometry),PCV2 virions; untreated ~70%,~ 55%
same,inhibitory effect of post-infection treatment,PCV2 [5]; 100 μM for 4 h or 12 h after PCV2 infection,significant inhibitory effect could not be detected
same,inhibitory effect of post-infection treatment,PCV2 [5]; 100 μM for 24 h after PCV2 infection,only a slight effect
same,"inhibitory effect, pre-treated cells group","PCV2 [5]; cells pre-exposed 60 min at 37 °C, then infected, 72 hpi, immunoblotting, qPCR, titer",inhibitory effect could not be detected
same,antiviral effect in dilution assay,"PCV2 [5]; virions pretreated with 100 μM, diluted 10-fold before inoculation, immunoblotting, qPCR, titer",antiviral effect could still be detected
same,"antiviral effect, pre-treated virions group","PCV2 [5]; virus premixed with 10 μM, 72 hpi",non-sensitive
same,"antiviral effect, pre-treated virions group","PCV2 [5]; virus premixed with 100 μM, 72 hpi",prominent antiviral effect
same,Kd,PCV2 dcapsid mutant N75A,164 ± 5.29 µM
same,dcapsid protein fraction eluted from heparin column,[3]; competitor 0.05 mg/mL,42.33 ± 3.52%
same,dcapsid protein fraction eluted from heparin column,[3]; competitor 0.5 mg/mL,90.00 ± 5.29%
same,cytotoxicity to PK-15 cells,"PK-15 cells; 100 μM, 24 h, 72 h and 120 h",did not generate significant cytotoxicity; also recorded: without causing significant toxicity
same,cytotoxicity to PK-15 cells,PK-15 cells; 200 μM,could produce cytotoxicity
same,Kd,PCV2 dcapsid mutant D78A,1061 ± 8.08 µM
same,Kd,PCV2 dcapsid mutant R51A,591 ± 5.57 µM
heparin [reference compound],eluted level of R51A and R73A mutants,[4]; 0.5 mg/mL heparin,most significant eluted reduction

# From PMC7077276 (Viruses, 2020)
